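Each compound was tested at five concentrations against cells in 96-well plates for 48 hours. TGI: total growth inhibition.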
How the values were obtained:
Assay in all cases: growth of human tumour cells (NCI), 48 h
RPMI-8226 leukemia = tested on: RPMI-8226 leukemia
SW-620 colon = tested on: SW-620 colon
HOP-62 NSCLC = tested on: HOP-62 NSCLC
SNB-75 CNS = tested on: SNB-75 CNS
XF 498 CNS = tested on: XF 498 CNS
K-562 leukemia = tested on: K-562 leukemia
SK-MEL-5 melanoma = tested on: SK-MEL-5 melanoma
NCI-H522 lung = tested on: NCI-H522 lung
KM12 colon = tested on: KM12 colon
IGROV1 ovarian = tested on: IGROV1 ovarian
NCI-H226 lung = tested on: NCI-H226 lung
M14 melanoma = tested on: M14 melanoma
786-0 renal = tested on: 786-0 renal
M19-MEL melanoma = tested on: M19-MEL melanoma
EKVX NSCLC = tested on: EKVX NSCLC
TK-10 renal = tested on: TK-10 renal
COLO 205 colon = tested on: COLO 205 colon
SNB-19 CNS = tested on: SNB-19 CNS
ACHN renal = tested on: ACHN renal
HCT-15 colon = tested on: HCT-15 colon
MALME-3M melanoma = tested on: MALME-3M melanoma
OVCAR-3 ovarian = tested on: OVCAR-3 ovarian
NCI-H23 lung = tested on: NCI-H23 lung
SN12C renal = tested on: SN12C renal
OVCAR-4 ovarian = tested on: OVCAR-4 ovarian
OVCAR-8 ovarian = tested on: OVCAR-8 ovarian
HCT-116 colon = tested on: HCT-116 colon
U251 CNS = tested on: U251 CNS
DLD-1 colon = tested on: DLD-1 colon
CCRF-CEM leukemia = tested on: CCRF-CEM leukemia
RXF 393 renal = tested on: RXF 393 renal
OVCAR-5 ovarian = tested on: OVCAR-5 ovarian
LXFL 529 NSCLC = tested on: LXFL 529 NSCLC
UACC-257 melanoma = tested on: UACC-257 melanoma
HL-60(TB) leukemia = tested on: HL-60(TB) leukemia
A498 renal = tested on: A498 renal
HOP-92 NSCLC = tested on: HOP-92 NSCLC
HT29 colon = tested on: HT29 colon
SNB-78 CNS = tested on: SNB-78 CNS
KM20L2 colon = tested on: KM20L2 colon
DMS 273 small cell lung = tested on: DMS 273 small cell lung
CAKI-1 renal = tested on: CAKI-1 renal
UO-31 renal = tested on: UO-31 renal
SK-MEL-28 melanoma = tested on: SK-MEL-28 melanoma
SK-OV-3 ovarian = tested on: SK-OV-3 ovarian
SF-295 CNS = tested on: SF-295 CNS
DMS 114 small cell lung = tested on: DMS 114 small cell lung
NCI-H460 lung = tested on: NCI-H460 lung
SK-MEL-2 melanoma = tested on: SK-MEL-2 melanoma
UACC-62 melanoma = tested on: UACC-62 melanoma
LOX IMVI melanoma = tested on: LOX IMVI melanoma
SF-268 CNS = tested on: SF-268 CNS
A549 NSCLC = tested on: A549 NSCLC
SF-539 CNS = tested on: SF-539 CNS
HCC-2998 colon = tested on: HCC-2998 colon
MOLT-4 leukemia = tested on: MOLT-4 leukemia
SR leukemia = tested on: SR leukemia
HOP-18 NSCLC = tested on: HOP-18 NSCLC

## Cc1ccc(C)c(NC(=O)C(=O)CC(=O)C2CCOC2=O)c1 (stereo not given)
RPMI-8226 leukemia
  TGI: > 100 µM
SW-620 colon
  TGI: > 100 µM
HOP-62 NSCLC
  TGI: > 100 µM
SNB-75 CNS
  TGI: > 100 µM
XF 498 CNS
  TGI: > 100 µM
K-562 leukemia
  TGI: > 100 µM
SK-MEL-5 melanoma
  TGI: > 100 µM
NCI-H522 lung
  TGI: > 100 µM
KM12 colon
  TGI: > 100 µM
IGROV1 ovarian
  TGI: > 100 µM
NCI-H226 lung
  TGI: > 100 µM
M14 melanoma
  TGI: > 100 µM
786-0 renal
  TGI: > 100 µM
M19-MEL melanoma
  TGI: > 100 µM
EKVX NSCLC
  TGI: > 100 µM
TK-10 renal
  TGI: > 100 µM
COLO 205 colon
  TGI: > 100 µM
SNB-19 CNS
  TGI: > 100 µM
ACHN renal
  TGI: > 100 µM
HCT-15 colon
  TGI: > 100 µM
MALME-3M melanoma
  TGI: > 100 µM
OVCAR-3 ovarian
  TGI: > 100 µM
NCI-H23 lung
  TGI: > 100 µM
SN12C renal
  TGI: > 100 µM
OVCAR-4 ovarian
  TGI: > 100 µM
OVCAR-8 ovarian
  TGI: > 100 µM
HCT-116 colon
  TGI: > 100 µM
U251 CNS
  TGI: > 100 µM
DLD-1 colon
  TGI: > 100 µM
CCRF-CEM leukemia
  TGI: > 100 µM
RXF 393 renal
  TGI: > 100 µM
OVCAR-5 ovarian
  TGI: > 100 µM
LXFL 529 NSCLC
  TGI: > 100 µM
UACC-257 melanoma
  TGI: > 100 µM
HL-60(TB) leukemia
  TGI: > 100 µM
A498 renal
  TGI: > 100 µM
HOP-92 NSCLC
  TGI: > 100 µM
HT29 colon
  TGI: > 100 µM
SNB-78 CNS
  TGI: > 100 µM
KM20L2 colon
  TGI: > 100 µM
DMS 273 small cell lung
  TGI: > 100 µM
CAKI-1 renal
  TGI: > 100 µM
UO-31 renal
  TGI: > 100 µM
SK-MEL-28 melanoma
  TGI: > 100 µM
SK-OV-3 ovarian
  TGI: > 100 µM
SF-295 CNS
  TGI: > 100 µM
DMS 114 small cell lung
  TGI: > 100 µM
NCI-H460 lung
  TGI: > 100 µM
SK-MEL-2 melanoma
  TGI: > 100 µM
UACC-62 melanoma
  TGI: > 100 µM
LOX IMVI melanoma
  TGI: > 100 µM
SF-268 CNS
  TGI: > 100 µM
A549 NSCLC
  TGI: > 100 µM
SF-539 CNS
  TGI: > 100 µM

## Cc1c2cc(Cl)ccc2n2c(=O)c3ccccc3[nH]c(=O)c12
RPMI-8226 leukemia
  TGI: > 100 µM
HOP-62 NSCLC
  TGI: > 100 µM
SNB-75 CNS
  TGI: > 100 µM
K-562 leukemia
  TGI: > 100 µM
NCI-H522 lung
  TGI: > 100 µM
IGROV1 ovarian
  TGI: > 100 µM
NCI-H226 lung
  TGI: > 100 µM
M14 melanoma
  TGI: > 100 µM
786-0 renal
  TGI: > 100 µM
M19-MEL melanoma
  TGI: > 100 µM
COLO 205 colon
  TGI: > 100 µM
MALME-3M melanoma
  TGI: > 100 µM
NCI-H23 lung
  TGI: > 100 µM
OVCAR-4 ovarian
  TGI: > 100 µM
HCT-116 colon
  TGI: > 100 µM
DLD-1 colon
  TGI: > 100 µM
CCRF-CEM leukemia
  TGI: > 100 µM
LXFL 529 NSCLC
  TGI: > 100 µM
HCC-2998 colon
  TGI: > 100 µM
HOP-92 NSCLC
  TGI: > 100 µM
SNB-78 CNS
  TGI: > 100 µM
DMS 273 small cell lung
  TGI: > 100 µM
MOLT-4 leukemia
  TGI: > 100 µM
SR leukemia
  TGI: > 100 µM
CAKI-1 renal
  TGI: > 100 µM
UO-31 renal
  TGI: > 100 µM
SK-MEL-28 melanoma
  TGI: > 100 µM
SK-OV-3 ovarian
  TGI: > 100 µM
DMS 114 small cell lung
  TGI: > 100 µM
SK-MEL-2 melanoma
  TGI: > 100 µM
UACC-62 melanoma
  TGI: > 100 µM
SF-268 CNS
  TGI: > 100 µM
SF-539 CNS
  TGI: > 100 µM

## CCCNC1CC(n2cc(C)c(=O)[nH]c2=O)OC1CO (stereo not given)
RPMI-8226 leukemia
  TGI: > 100 µM
HOP-62 NSCLC
  TGI: > 100 µM
SNB-75 CNS
  TGI: > 100 µM
K-562 leukemia
  TGI: > 100 µM
NCI-H522 lung
  TGI: > 100 µM
IGROV1 ovarian
  TGI: > 100 µM
NCI-H226 lung
  TGI: > 100 µM
M14 melanoma
  TGI: > 100 µM
786-0 renal
  TGI: > 100 µM
M19-MEL melanoma
  TGI: > 100 µM
COLO 205 colon
  TGI: > 100 µM
ACHN renal
  TGI: > 100 µM
MALME-3M melanoma
  TGI: > 100 µM
NCI-H23 lung
  TGI: > 100 µM
SN12C renal
  TGI: > 100 µM
OVCAR-4 ovarian
  TGI: > 100 µM
HCT-116 colon
  TGI: > 100 µM
DLD-1 colon
  TGI: > 100 µM
CCRF-CEM leukemia
  TGI: > 100 µM
LXFL 529 NSCLC
  TGI: > 100 µM
HL-60(TB) leukemia
  TGI: > 100 µM
HCC-2998 colon
  TGI: > 100 µM
HOP-92 NSCLC
  TGI: > 100 µM
SNB-78 CNS
  TGI: > 100 µM
DMS 273 small cell lung
  TGI: > 100 µM
MOLT-4 leukemia
  TGI: > 100 µM
SR leukemia
  TGI: > 100 µM
CAKI-1 renal
  TGI: > 100 µM
UO-31 renal
  TGI: > 100 µM
SK-MEL-28 melanoma
  TGI: > 100 µM
SK-OV-3 ovarian
  TGI: > 100 µM
DMS 114 small cell lung
  TGI: > 100 µM
NCI-H460 lung
  TGI: > 100 µM
SK-MEL-2 melanoma
  TGI: > 100 µM
UACC-62 melanoma
  TGI: > 100 µM
SF-268 CNS
  TGI: > 100 µM
SF-539 CNS
  TGI: > 100 µM

## COc1ccc(S(=O)(=O)NC(C)C(=O)O)cc1 (stereo not given)
RPMI-8226 leukemia
  TGI: > 100 µM
SW-620 colon
  TGI: > 100 µM
SNB-75 CNS
  TGI: > 100 µM
XF 498 CNS
  TGI: 63.4 µM
K-562 leukemia
  TGI: > 100 µM
SK-MEL-5 melanoma
  TGI: > 100 µM
NCI-H522 lung
  TGI: > 100 µM
KM12 colon
  TGI: > 100 µM
IGROV1 ovarian
  TGI: > 100 µM
M14 melanoma
  TGI: > 100 µM
786-0 renal
  TGI: > 100 µM
M19-MEL melanoma
  TGI: > 100 µM
EKVX NSCLC
  TGI: > 100 µM
TK-10 renal
  TGI: > 100 µM
COLO 205 colon
  TGI: > 100 µM
SNB-19 CNS
  TGI: > 100 µM
ACHN renal
  TGI: > 100 µM
HCT-15 colon
  TGI: > 100 µM
MALME-3M melanoma
  TGI: > 100 µM
OVCAR-3 ovarian
  TGI: > 100 µM
NCI-H23 lung
  TGI: > 100 µM
SN12C renal
  TGI: > 100 µM
OVCAR-4 ovarian
  TGI: > 100 µM
OVCAR-8 ovarian
  TGI: > 100 µM
U251 CNS
  TGI: > 100 µM
DLD-1 colon
  TGI: > 100 µM
CCRF-CEM leukemia
  TGI: > 100 µM
RXF 393 renal
  TGI: > 100 µM
OVCAR-5 ovarian
  TGI: > 100 µM
LXFL 529 NSCLC
  TGI: > 100 µM
UACC-257 melanoma
  TGI: > 100 µM
HL-60(TB) leukemia
  TGI: > 100 µM
A498 renal
  TGI: > 100 µM
HOP-92 NSCLC
  TGI: > 100 µM
HT29 colon
  TGI: > 100 µM
KM20L2 colon
  TGI: > 100 µM
DMS 273 small cell lung
  TGI: > 100 µM
MOLT-4 leukemia
  TGI: > 100 µM
CAKI-1 renal
  TGI: > 100 µM
UO-31 renal
  TGI: > 100 µM
SK-MEL-28 melanoma
  TGI: > 100 µM
HOP-18 NSCLC
  TGI: > 100 µM
SK-OV-3 ovarian
  TGI: > 100 µM
SF-295 CNS
  TGI: > 100 µM
NCI-H460 lung
  TGI: > 100 µM
SK-MEL-2 melanoma
  TGI: > 100 µM
UACC-62 melanoma
  TGI: > 100 µM
LOX IMVI melanoma
  TGI: > 100 µM
SF-268 CNS
  TGI: > 100 µM
A549 NSCLC
  TGI: > 100 µM
SF-539 CNS
  TGI: > 100 µM
